Values of other authors, collected in PMC7388056 (Biomacromolecules, 2020).

Test system: integrins

arginine–glycine–aspartic acid [RGD]
effectiveness relative to parent proteins, in words: orders-of-magnitude less effective than its parent proteins
